How the values were obtained:
[1] = double amidation of dimethyl bis(oxyacetate) diester with alpha,omega-diamine (aminolysis of methyl ester, no additive), 10 kbar, 24 h; conditions: the molecule shown is the open-chain precursor, MeOH, 30.0 mM, 25.0 °C, 2 steps, scale: mol% diamide
[2] = double amidation of dimethyl bis(oxyacetate) diester with alpha,omega-diamine (aminolysis of methyl ester, no additive), 1 bar, 168 h; conditions: the molecule shown is the open-chain precursor, MeOH, 30.0 mM, 25.0 °C, 2 steps, scale: mol% diamide

Structure (SMILES): COC(=O)COc1ccccc1OCC(=O)NCCOCCN [3{1,1}]
- ring closure, monomer to dimer ([1]; 15-membered ring): 95
- ring closure, monomer to dimer ([2]; 15-membered ring): 99.5

Structure (SMILES): COC(=O)COc1ccccc1OCC(=O)NCCCOCCCCOCCCN [3{1,2}]
- ring closure, monomer to dimer ([1]; 22-membered ring): 78
- ring closure, monomer to dimer ([2]; 22-membered ring): 85

Structure (SMILES): COC(=O)COc1ccccc1OCC(=O)NCCCOCCOCCOCCCN [3{1,3}]
- ring closure, monomer to dimer ([1]; 23-membered ring): 76
- ring closure, monomer to dimer ([2]; 23-membered ring): 88

Structure (SMILES): COC(=O)COc1cccc(OCC(=O)NCCOCCN)c1 [3{2,1}]
- ring closure, monomer to dimer ([1]; 16-membered ring): 68.5
- ring closure, monomer to dimer ([2]; 16-membered ring): 77

Structure (SMILES): COC(=O)COc1cccc(OCC(=O)NCCCOCCCCOCCCN)c1 [3{2,2}]
- ring closure, monomer to dimer ([1]; 23-membered ring): 76.5
- ring closure, monomer to dimer ([2]; 23-membered ring): 85

Structure (SMILES): COC(=O)COc1cccc(OCC(=O)NCCCOCCOCCOCCCN)c1 [3{2,3}]
- ring closure, monomer to dimer ([1]; 24-membered ring): 78
- ring closure, monomer to dimer ([2]; 24-membered ring): 95

Structure (SMILES): COC(=O)COc1ccc(OCC(=O)NCCOCCN)cc1 [3{3,1}]
- ring closure, monomer to dimer ([1]; 17-membered ring): 16.5
- ring closure, monomer to dimer ([2]; 17-membered ring): 33

Structure (SMILES): COC(=O)COc1ccc(OCC(=O)NCCCOCCCCOCCCN)cc1 [3{3,2}]
- ring closure, monomer to dimer ([1]; 24-membered ring): 81
- ring closure, monomer to dimer ([2]; 24-membered ring): 85

Structure (SMILES): COC(=O)COc1ccc(OCC(=O)NCCCOCCOCCOCCCN)cc1 [3{3,3}]
- ring closure, monomer to dimer ([1]; 25-membered ring): 79
- ring closure, monomer to dimer ([2]; 25-membered ring): 89

From publication PMC7588042
